Experimental data from patent US7138361B2, “Herbicidal heterocycles” (E. I. du Pont de Nemours and Company, priority 2000, dated 2006).

How the values were obtained:
Format in all cases: in vivo
[1] = system: velvetleaf (Abutilon theophrasti); assay: Test B preemergence
How it was run: (§1)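 Pre: seeded pots sprayed, chemical in non-phytotoxic solvent/surfactant mix. Post: plants 2–18 cm, 1–4 leaf, same formulation. Greenhouse 13–15 d; visual % control vs untreated, 0–100 scale.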

[2] = system: lambsquarters (Chenopodium album); assay: Test B preemergence
How it was run: as §1

[3] = system: pigweed (Amaranthus retroflexus); assay: Test B preemergence
How it was run: as §1

[4] = system: giant foxtail (Setaria faberii); assay: Test B preemergence
How it was run: as §1

[5] = system: crabgrass (Digitaria sanguinalis); assay: Test B preemergence
How it was run: as §1

[6] = system: morning glory (Ipomoea hederacea); assay: Test B preemergence
How it was run: as §1

[7] = system: Surinam grass (Brachiaria decumbens); assay: Test B preemergence
How it was run: as §1

[8] = system: cocklebur (Xanthium strumarium); assay: Test B preemergence
How it was run: as §1

[9] = system: barnyardgrass (Echinochloa crus-galli); assay: Test B preemergence
How it was run: as §1

corn (Zea mays) [10] = assay: Test B preemergence
How it was run: as §1

rice (Oryza saliva) [11] = assay: Test B preemergence
How it was run: as §1

[12] = system: velvetleaf (Abutilon theophrasti); assay: Test B postemergence; conditions: 13 to 15 days
How it was run: as §1

[13] = system: lambsquarters (Chenopodium album); assay: Test B postemergence; conditions: 13 to 15 days
How it was run: as §1

[14] = system: pigweed (Amaranthus retroflexus); assay: Test B postemergence; conditions: 13 to 15 days
How it was run: as §1

[15] = system: giant foxtail (Setaria faberii); assay: Test B postemergence; conditions: 13 to 15 days
How it was run: as §1

[16] = system: blackgrass (Alopecurus myosuroides); assay: Test B postemergence; conditions: 13 to 15 days
How it was run: as §1

[17] = system: crabgrass (Digitaria sanguinalis); assay: Test B postemergence; conditions: 13 to 15 days
How it was run: as §1

[18] = system: morning glory (Ipomoea hederacea); assay: Test B postemergence; conditions: 13 to 15 days
How it was run: as §1

wild oat (Avena fatua) = assay: Test B postemergence; conditions: 13 to 15 days
How it was run: as §1

[19] = system: Surinam grass (Brachiaria decumbens); assay: Test B postemergence; conditions: 13 to 15 days
How it was run: as §1

[20] = system: wheat (Triticum aestivum); assay: Test B postemergence; conditions: 13 to 15 days
How it was run: as §1

[21] = system: cocklebur (Xanthium strumarium); assay: Test B postemergence; conditions: 13 to 15 days
How it was run: as §1

[22] = system: barnyardgrass (Echinochloa crus-galli); assay: Test B postemergence; conditions: 13 to 15 days
How it was run: as §1

corn (Zea mays) [23] = assay: Test B postemergence; conditions: 13 to 15 days
How it was run: as §1

rice (Oryza saliva) [24] = assay: Test C flooded paddy test; conditions: for Rice plant response rating: Flooded Paddy, scale 0 to 100, 0 no effect, 100 complete control; for Plant response rating, Rice: flooded paddy test, scale 0 to 100 (0 no effect, 100 complete control)
How it was run: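 Each species was cultivated to 2 leaves in flooded paddy pots, then treated. After a greenhouse period of 12–14 days, the plants were scored visually relative to controls from 0 (no effect) to 100 (complete control).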

Sunflower = assay: Test C preemergence; conditions: scale 0 to 100, 0 no effect, 100 complete control
Nightshade = assay: Test C preemergence; conditions: Rate 500 g/ha, visual evaluation after 12 to 14 days
[25] = Preemergence, Rate 500 g/ha, scale 0 to 100, 0 no effect, 100 complete control
[26] = preemergence, Rate 125 g/ha, scale of 0 to 100 where 0 is no effect and 100 is complete control, 13 to 15 days
[27] = Rate 125 g/ha, scale 0 (no effect) to 100 (complete control)
[28] = Rate 500 g/ha, scale 0 to 100, 0 is no effect, 100 is complete control

CCOC(=O)c1cccc(N2CCC(n3ccc(C(C)(C)C)n3)C2=O)c1 (stereo not drawn) [Compound 72]
Plant response rating, Velvetleaf [1, 25]: 90 | Plant response rating, Velvetleaf [1, 26]: 0 | Plant response rating, Lambsquarters [2, 25]: 100 | Plant response rating, Lambsquarters [2, 26]: 100 | Plant response rating, Pigweed [3, 25]: 100 | Plant response rating, Pigweed [3, 26]: 100 | Plant response rating, Foxtail, Giant [4, 25]: 100 | Plant response rating, Foxtail, Giant [4, 26]: 100 | Plant response rating, Crabgrass [5, 25]: 100 | Plant response rating, Crabgrass [5, 26]: 100 | Plant response rating, Morningglory [6, 25]: 90 | Plant response rating, Morningglory [6, 26]: 0 | Plant response rating, Surinam grass [7, 25]: 70 | Plant response rating, Surinam grass [7, 26]: 0 | Plant response rating, Cocklebur [8, 25]: 60 | Plant response rating, Cocklebur [8, 26]: 0 | Plant response rating, Barnyardgrass [9, 25]: 100 | Plant response rating, Barnyardgrass [9, 26]: 100 | Plant response rating, Corn (corn (Zea mays) [10]; [25]): 0 | Plant response rating, Corn (corn (Zea mays) [10]; [26]): 0 | Plant response rating, Rice (rice (Oryza saliva) [11]; [25]): 0 | Plant response rating, Rice (rice (Oryza saliva) [11]; [26]): 0 | Plant response rating, Velvetleaf [12, 27]: 30 | Plant response rating, Velvetleaf [12, 28]: 60 | Plant response rating, Lambsquarters [13, 27]: 0 | Plant response rating, Lambsquarters [13, 28]: 0 | Plant response rating, Pigweed [14, 27]: 20 | Plant response rating, Pigweed [14, 28]: 60 | Plant response rating, Foxtail, Giant [15, 27]: 0 | Plant response rating, Foxtail, Giant [15, 28]: 50 | Plant response rating, Blackgrass [16, 27]: 0 | Plant response rating, Blackgrass [16, 28]: 0 | Plant response rating, Crabgrass [17, 27]: 0 | Plant response rating, Crabgrass [17, 28]: 30 | Plant response rating, Morningglory [18, 27]: 20 | Plant response rating, Morningglory [18, 28]: 50 | Plant response rating, Wild Oat (wild oat (Avena fatua); [27]): 0 | Plant response rating, Wild Oat (wild oat (Avena fatua); [28]): 0 | Plant response rating, Surinam grass [19, 27]: 0 | Plant response rating, Surinam grass [19, 28]: 0 | Plant response rating, Wheat [20, 27]: 0 | Plant response rating, Wheat [20, 28]: 0 | Plant response rating, Cocklebur [21, 27]: 80 | Plant response rating, Cocklebur [21, 28]: 90 | Plant response rating, Barnyardgrass [22, 27]: 30 | Plant response rating, Barnyardgrass [22, 28]: 70 | Plant response rating, Corn (corn (Zea mays) [23]; [27]): 0 | Plant response rating, Corn (corn (Zea mays) [23]; [28]): 0 | Rice plant response rating (rice (Oryza saliva) [24]; Rate 250 g/ha): 40 | Rice plant response rating (rice (Oryza saliva) [24]; Rate 500 g/ha): 50 | Plant response rating, Rice (rice (Oryza saliva) [24]; Rate 62 g/ha): 0 | Plant response rating, Rice (rice (Oryza saliva) [24]; Rate 125 g/ha): 20 | Plant response rating, Sunflower (Sunflower; Rate 125 g/ha): 20 | Plant response rating, Sunflower (Sunflower; Rate 250 g/ha): 20 | Plant response rating (0 to 100), Nightshade (Nightshade): 60

CCC(C)c1ccn(C2CCN(c3cccc(OC(C)C)c3)C2=O)n1 (stereo not drawn) [Compound 83]
Plant response rating, Velvetleaf [1, 25]: 0 | Plant response rating, Velvetleaf [1, 26]: 0 | Plant response rating, Lambsquarters [2, 25]: 100 | Plant response rating, Lambsquarters [2, 26]: 100 | Plant response rating, Pigweed [3, 25]: 100 | Plant response rating, Pigweed [3, 26]: 100 | Plant response rating, Foxtail, Giant [4, 25]: 100 | Plant response rating, Foxtail, Giant [4, 26]: 100 | Plant response rating, Crabgrass [5, 25]: 100 | Plant response rating, Crabgrass [5, 26]: 100 | Plant response rating, Morningglory [6, 26]: 0 | Plant response rating, Surinam grass [7, 25]: 90 | Plant response rating, Surinam grass [7, 26]: 70 | Plant response rating, Cocklebur [8, 25]: 0 | Plant response rating, Cocklebur [8, 26]: 0 | Plant response rating, Barnyardgrass [9, 25]: 100 | Plant response rating, Barnyardgrass [9, 26]: 100 | Plant response rating, Corn (corn (Zea mays) [10]; [25]): 20 | Plant response rating, Corn (corn (Zea mays) [10]; [26]): 20 | Plant response rating, Rice (rice (Oryza saliva) [11]; [25]): 100 | Plant response rating, Rice (rice (Oryza saliva) [11]; [26]): 20 | Plant response rating, Velvetleaf [12, 27]: 0 | Plant response rating, Velvetleaf [12, 28]: 0 | Plant response rating, Lambsquarters [13, 27]: 10 | Plant response rating, Lambsquarters [13, 28]: 60 | Plant response rating, Pigweed [14, 27]: 0 | Plant response rating, Pigweed [14, 28]: 10 | Plant response rating, Foxtail, Giant [15, 27]: 0 | Plant response rating, Foxtail, Giant [15, 28]: 0 | Plant response rating, Blackgrass [16, 27]: 0 | Plant response rating, Blackgrass [16, 28]: 0 | Plant response rating, Crabgrass [17, 27]: 0 | Plant response rating, Crabgrass [17, 28]: 0 | Plant response rating, Morningglory [18, 27]: 0 | Plant response rating, Morningglory [18, 28]: 10 | Plant response rating, Wild Oat (wild oat (Avena fatua); [27]): 0 | Plant response rating, Wild Oat (wild oat (Avena fatua); [28]): 0 | Plant response rating, Surinam grass [19, 27]: 0 | Plant response rating, Surinam grass [19, 28]: 0 | Plant response rating, Wheat [20, 27]: 0 | Plant response rating, Wheat [20, 28]: 0 | Plant response rating, Cocklebur [21, 27]: 10 | Plant response rating, Cocklebur [21, 28]: 10 | Plant response rating, Barnyardgrass [22, 27]: 0 | Plant response rating, Barnyardgrass [22, 28]: 0 | Plant response rating, Corn (corn (Zea mays) [23]; [27]): 0 | Plant response rating, Corn (corn (Zea mays) [23]; [28]): 0 | Rice plant response rating (rice (Oryza saliva) [24]; Rate 250 g/ha): 70 | Rice plant response rating (rice (Oryza saliva) [24]; Rate 500 g/ha): 80 | Plant response rating, Rice (rice (Oryza saliva) [24]; Rate 62 g/ha): 20 | Plant response rating, Rice (rice (Oryza saliva) [24]; Rate 125 g/ha): 20 | Plant response rating, Sunflower (Sunflower; Rate 250 g/ha): 0 | Plant response rating (0 to 100), Nightshade (Nightshade): 100
